Measurements from patent publication US11352320B2 (Merck Sharp & Dohme Corp., priority 2018, dated 2022).

What follows are compounds tested against IDO1 (Homo sapiens, UniProt P14902) (assay: IDO1 Cellular Assay in Hela Cells Stimulated with IFNγ). Details: IFNγ 100 ng/mL, 300 uM L-tryptophan, about 48 hours, fluorescence readout, read-out: IDO1 HELA Cell Assay, IC50.
Assay type: cell-based
Design: endogenous in cells; host or cells: HeLa cells stimulated with IFNγ
Experimental: Biological Assays IDO1 Cellular Assay in Hela Cells Stimulated with IFNγ
Hela cells were cultured in complete Hela culture medium (90% EMEM, 10% heat-inactivated fetal bovine serum) and expanded to about 1×10^9 cells. The cells were then collected and frozen down at 1×10^7 cells/vial in 1 mL frozen medium (90% complete Hela culture medium, 10% DMSO)
Compounds to be tested were serially diluted in ten 3-fold steps in DMSO starting from 10 mM DMSO stocks in Echo low volume plate(s). Compound dilutions or DMSO alone were then dispensed from the dilution plate(s) into Greiner black 384-well assay plate(s) (catalog #781086, 50 nL/well) using an Echo 550 acoustic liquid handler (Labcyte).
Frozen Hela cells were thawed and transferred into Hela assay medium (99% complete Hela culture medium, 1% Pen/Strep) with 20 mL medium/vial of cells. The cells were spun down at 250 g in a table top centrifuge for 5 min and suspended in same volume of Hela assay medium. The cells were then counted and adjusted to a density of 2×10^5 cells/ml in Hela assay medium. Sterile L-tryptophan were added to the cells with final concentration of 300 uM L-tryptophan. A small aliquot (2 mL/plate) of Hela cells were set aside and were not treated with IFNγ, to serve as the Max-E control. The rest of Hela cells were added with sterile IFNγ (Cat #285-IF, R & D systems) with a final concentration of 100 ng/mL.
Hela cells with and without IFNγ were dispensed to the respective wells of 384-well assay plates containing the compounds. The plates were incubated for about 48 hours at a 37° C., 5% CO2 incubator. Afterwards, 12 μL of 0.5 M methyl isonipecotate in dimethyl sulfoxide were added into each well and the plates were sealed and incubated at 37° C. without CO2 overnight. The plates were centrifuged for 1 min at 200×g. The resulting fluorescence was measured in a Spectramax plate reader (Molecular Devices) with a 400 nm excitation filter and a 510 nm emission filter.
The fluorescence intensity of each well was corrected for the background observed in wells with non-IFNγ-treated cells and was expressed as a fraction of the intensity observed in wells of IFNγ-treated cells and DMSO only. Potencies were calculated by linear least squares fit to the four parameter logistic IC50 equation.
Compounds disclosed herein generally have IC50 of about 1 nM to about 1,000 nM, or more specifically, about 2 nM to about 800 nM, or more specifically, about 5 nM to about 600 nM, or still more specifically, about 10 nM to about 500 nM. Such a result is indicative of the intrinsic activity of the compounds in use as an inhibitor of an IDO enzyme.

IDO1, sequence (P14902 whole entry): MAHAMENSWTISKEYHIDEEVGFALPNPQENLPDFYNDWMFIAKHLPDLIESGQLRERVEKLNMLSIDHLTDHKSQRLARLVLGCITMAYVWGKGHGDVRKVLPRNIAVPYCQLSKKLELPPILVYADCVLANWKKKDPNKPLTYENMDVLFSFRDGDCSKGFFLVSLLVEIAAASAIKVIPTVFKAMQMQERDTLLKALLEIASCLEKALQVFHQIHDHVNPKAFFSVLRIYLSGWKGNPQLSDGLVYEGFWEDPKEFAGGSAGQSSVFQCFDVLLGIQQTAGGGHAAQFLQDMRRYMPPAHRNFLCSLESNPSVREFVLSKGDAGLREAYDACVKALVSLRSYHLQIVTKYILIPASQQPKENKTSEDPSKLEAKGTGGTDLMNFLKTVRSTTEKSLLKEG

SMILES	IC50 [nM]
Cc1nccc(NC23CC([C@H](C)C(=O)Nc4ccc(Cl)cc4)(C2)C3)n1 (single isomer, unassigned) [Example 2, N-(4-chlorophenyl)-2-(3-((2-methylpyrimidin-4-yl)amino)bicyclo[1.1.1]pentan-1-yl)propanamide]	33.3
Cc1nccc(NC23CC([C@H](C)C(=O)Nc4ccc(Cl)cc4)(C2)C3)n1 (single isomer, unassigned) [Example 3, N-(4-chlorophenyl)-2-(3-((2-methylpyrimidin-4-yl)amino)bicyclo[1.1.1]pentan-1-yl)propanamide]	428
Cc1nc(NC23CC(C(C)C(=O)Nc4ccc(F)cc4)(C2)C3)c2cc(F)ccc2n1 (single isomer, unassigned) [Example 6]	590
Cc1nc(NC23CC(C(C)C(=O)Nc4ccc(F)cc4)(C2)C3)c2cc(F)ccc2n1 (single isomer, unassigned) [Example 7]	17.7
CC(C(=O)Nc1ccc(F)cc1)C12CC(Nc3nc(Cl)nc4c3CCC4)(C1)C2 (single isomer, unassigned) [Example 9, 2-(3-((2-chloro-6,7-dihydro-5H-cyclopenta[d]pyrimidin-4-yl)amino)bicyclo[1.1.1]pentan-1-yl)-N-(4-fluorophenyl)propanamide]	11.1
CC(C(=O)Nc1ccc(F)cc1)C12CC(Nc3ncnc4ccc(F)cc34)(C1)C2 (single isomer, unassigned) [Example 10, N-(4-fluorophenyl)-2-(3-((6-fluoroquinazolin-4-yl)amino)bicyclo[1.1.1]pentan-1-yl)propanamide]	208
CC(C(=O)Nc1ccc(F)cc1)C12CC(Nc3ccc(C(F)(F)F)cn3)(C1)C2 (centres unmarked) [Example 15, N-(4-fluorophenyl)-2-(3-{[5-(trifluoromethyl)pyridin-2-yl]amino}bicyclo[1.1.1]pentan-1-yl)propanamide]	79
CC(C(=O)Nc1ccc(F)cc1)C12CC(Nc3cc(C(F)(F)F)ncn3)(C1)C2 (centres unmarked) [Example 16, N-(4-fluorophenyl)-2-(3-{[6-(trifluoromethyl)pyrimidin-4-yl]amino}bicyclo[1.1.1]pentan-1-yl)propanamide]	27.2

Continued by falling IC50, values first:

IC50 [nM]	SMILES
587	CC(C(=O)Nc1ccc(F)cc1)C12CC(Nc3nccc4cccnc34)(C1)C2 (centres unmarked) [Example 12, N-(4-fluorophenyl)-2-{3-[(1,7-naphthyridin-8-yl)amino]bicyclo[1.1.1]pentan-1-yl}propanamide]
388	CC(C(=O)Nc1ccc(F)cc1)C12CC(Nc3ncnc4ccccc34)(C1)C2 (single isomer, unassigned) [Example 4, N-(4-fluorophenyl)-2-(3-(quinazolin-4-ylamino)bicyclo[1.1.1]pentan-1-yl)propanamide]
330	CC(C(=O)Nc1ccc(F)cc1)C12CC(Nc3nc(Cl)nc4c3CCC4)(C1)C2 (single isomer, unassigned) [Example 8, 2-(3-((2-chloro-6,7-dihydro-5H-cyclopenta[d]pyrimidin-4-yl)amino)bicyclo[1.1.1]pentan-1-yl)-N-(4-fluorophenyl)propanamide]
138	CC(C(=O)Nc1ccc(F)cc1)C12CC(Nc3ncc(C(F)(F)F)cc3F)(C1)C2 (centres unmarked) [Example 13, N-(4-fluorophenyl)-2-(3-{[3-fluoro-5-(trifluoromethyl)pyridin-2-yl]amino}bicyclo[1.1.1]pentan-1-yl)propanamide]
52.4	Cc1nc(NC23CC(C(C)C(=O)Nc4ccc(F)cc4)(C2)C3)ccc1C(F)(F)F (centres unmarked) [Example 14, N-(4-fluorophenyl)-2-(3-{[6-methyl-5-(trifluoromethyl)pyridin-2-yl]amino}bicyclo[1.1.1]pentan-1-yl)propanamide]
33.3	Cc1nccc(NC23CC(C(C)C(=O)Nc4ccc(Cl)cc4)(C2)C3)n1 (racemic) [Example 1, N-(4-chlorophenyl)-2-(3-((2-methylpyrimidin-4-yl)amino)bicyclo[1.1.1]pentan-1-yl)propanamide]
